Assays:
Assay in all cases: Eurofins kinase panel
Assay type in all cases: biochemical
Settings in all cases: read-out: Inhibition rate (%)
IRAK1(h) = biological target: T1, IRAK1(h) (Homo sapiens, UniProt P51617)
T1 construct: purchased Eurofins (KinaseProfiler)

TRB2(h) = biological target: T2, TRB2(h) (Homo sapiens, UniProt Q92519)
T2 construct: purchased Eurofins (KinaseProfiler)
T2 sequence (Q92519 1-343): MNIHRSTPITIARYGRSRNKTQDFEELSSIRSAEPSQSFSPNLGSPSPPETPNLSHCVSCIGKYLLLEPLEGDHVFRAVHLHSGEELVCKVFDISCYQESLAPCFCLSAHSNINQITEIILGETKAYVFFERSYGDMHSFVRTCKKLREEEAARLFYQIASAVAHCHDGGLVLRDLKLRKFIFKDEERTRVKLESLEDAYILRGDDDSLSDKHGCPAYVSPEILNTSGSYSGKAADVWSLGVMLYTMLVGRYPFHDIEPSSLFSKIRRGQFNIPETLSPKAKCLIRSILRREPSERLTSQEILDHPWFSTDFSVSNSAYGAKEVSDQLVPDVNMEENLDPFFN

EphA5(h) = biological target: T3, EphA5(h) (Homo sapiens, UniProt P54756)
T3 construct: purchased Eurofins (KinaseProfiler)

FGFR4(h) = biological target: T4, FGFR4(h) (Homo sapiens, UniProt P22455)
T4 construct: purchased Eurofins (KinaseProfiler)

CK2α2(h) = biological target: T5, CK2α2(h) (Homo sapiens, UniProt P19784)
T5 construct: purchased Eurofins (KinaseProfiler)

Blk(h) = biological target: T6, Blk(h) (Homo sapiens, UniProt P51451)
T6 construct: purchased Eurofins (KinaseProfiler)

PKG1β(h) = biological target: T7, PKG1β(h) (Homo sapiens, UniProt Q13976)
T7 construct: purchased Eurofins (KinaseProfiler)
T7 sequence (Q13976 1-686 isoform Q13976-2): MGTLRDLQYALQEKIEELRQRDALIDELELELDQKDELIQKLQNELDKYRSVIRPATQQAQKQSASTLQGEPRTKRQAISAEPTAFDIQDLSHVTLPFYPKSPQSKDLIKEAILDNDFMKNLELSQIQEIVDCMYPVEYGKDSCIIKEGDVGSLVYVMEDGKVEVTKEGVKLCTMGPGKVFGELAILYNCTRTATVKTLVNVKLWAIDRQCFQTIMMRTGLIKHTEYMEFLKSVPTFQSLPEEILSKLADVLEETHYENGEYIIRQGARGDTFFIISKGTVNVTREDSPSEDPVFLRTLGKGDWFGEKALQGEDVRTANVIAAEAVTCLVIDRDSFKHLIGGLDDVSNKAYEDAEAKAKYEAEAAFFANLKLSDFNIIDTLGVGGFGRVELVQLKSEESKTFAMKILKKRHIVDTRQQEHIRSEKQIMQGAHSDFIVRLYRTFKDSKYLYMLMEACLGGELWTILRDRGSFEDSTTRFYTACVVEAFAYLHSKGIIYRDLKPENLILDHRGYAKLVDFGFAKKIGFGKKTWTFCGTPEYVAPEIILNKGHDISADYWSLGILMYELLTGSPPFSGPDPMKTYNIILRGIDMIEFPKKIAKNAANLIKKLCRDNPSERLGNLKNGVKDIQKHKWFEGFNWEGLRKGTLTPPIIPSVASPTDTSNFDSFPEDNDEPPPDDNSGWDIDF

EphA3(h) = biological target: T8, EphA3(h) (Homo sapiens, UniProt P29320)
T8 construct: purchased Eurofins (KinaseProfiler)
T8 sequence (P29320 21-983): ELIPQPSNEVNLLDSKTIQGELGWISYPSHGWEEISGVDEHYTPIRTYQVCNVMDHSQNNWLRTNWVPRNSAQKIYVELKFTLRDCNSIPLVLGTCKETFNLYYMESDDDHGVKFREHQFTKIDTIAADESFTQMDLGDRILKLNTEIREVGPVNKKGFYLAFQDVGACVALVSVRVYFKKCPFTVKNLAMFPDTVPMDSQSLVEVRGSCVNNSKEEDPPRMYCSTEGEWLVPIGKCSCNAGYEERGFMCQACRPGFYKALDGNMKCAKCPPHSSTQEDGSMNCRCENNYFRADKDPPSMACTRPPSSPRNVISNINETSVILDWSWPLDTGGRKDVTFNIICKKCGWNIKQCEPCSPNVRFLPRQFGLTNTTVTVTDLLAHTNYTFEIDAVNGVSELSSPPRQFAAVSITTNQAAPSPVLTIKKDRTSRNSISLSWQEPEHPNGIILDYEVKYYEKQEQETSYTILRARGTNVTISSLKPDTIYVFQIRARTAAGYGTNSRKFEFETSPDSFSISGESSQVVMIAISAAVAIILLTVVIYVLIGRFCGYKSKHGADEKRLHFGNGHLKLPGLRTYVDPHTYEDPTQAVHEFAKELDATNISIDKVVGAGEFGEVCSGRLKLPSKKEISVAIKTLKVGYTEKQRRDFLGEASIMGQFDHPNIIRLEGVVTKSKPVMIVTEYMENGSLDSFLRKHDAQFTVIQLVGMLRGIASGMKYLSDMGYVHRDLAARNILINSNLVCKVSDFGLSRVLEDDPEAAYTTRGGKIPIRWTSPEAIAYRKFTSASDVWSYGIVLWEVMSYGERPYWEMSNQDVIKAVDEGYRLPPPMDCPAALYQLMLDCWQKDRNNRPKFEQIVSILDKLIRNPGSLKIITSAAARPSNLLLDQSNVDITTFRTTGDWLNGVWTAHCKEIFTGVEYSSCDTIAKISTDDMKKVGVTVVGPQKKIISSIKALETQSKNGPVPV

CDK4/cyclinD3(h) = biological target: T9, CDK4/cyclinD3(h) (Homo sapiens, UniProt P11802)
T9 construct: purchased Eurofins (KinaseProfiler)
T9 sequence (P11802 whole entry): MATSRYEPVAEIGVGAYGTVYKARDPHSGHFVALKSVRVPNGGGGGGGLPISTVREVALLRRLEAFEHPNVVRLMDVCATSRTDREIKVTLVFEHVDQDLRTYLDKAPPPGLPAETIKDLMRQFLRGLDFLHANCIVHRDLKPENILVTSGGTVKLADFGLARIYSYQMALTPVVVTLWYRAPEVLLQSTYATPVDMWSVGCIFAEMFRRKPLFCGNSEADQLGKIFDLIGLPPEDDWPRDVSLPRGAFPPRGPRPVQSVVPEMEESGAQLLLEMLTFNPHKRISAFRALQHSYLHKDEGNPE
T9 sequence (P30281 whole entry partner): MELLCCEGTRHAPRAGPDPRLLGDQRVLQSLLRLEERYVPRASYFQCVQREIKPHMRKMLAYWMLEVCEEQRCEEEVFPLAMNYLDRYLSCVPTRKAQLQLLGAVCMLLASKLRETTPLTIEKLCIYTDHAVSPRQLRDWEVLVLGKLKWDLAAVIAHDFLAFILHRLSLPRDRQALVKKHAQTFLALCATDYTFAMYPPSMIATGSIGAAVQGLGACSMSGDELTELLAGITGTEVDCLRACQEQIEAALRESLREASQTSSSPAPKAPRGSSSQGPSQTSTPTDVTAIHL

T1 sequence (P51617 whole entry): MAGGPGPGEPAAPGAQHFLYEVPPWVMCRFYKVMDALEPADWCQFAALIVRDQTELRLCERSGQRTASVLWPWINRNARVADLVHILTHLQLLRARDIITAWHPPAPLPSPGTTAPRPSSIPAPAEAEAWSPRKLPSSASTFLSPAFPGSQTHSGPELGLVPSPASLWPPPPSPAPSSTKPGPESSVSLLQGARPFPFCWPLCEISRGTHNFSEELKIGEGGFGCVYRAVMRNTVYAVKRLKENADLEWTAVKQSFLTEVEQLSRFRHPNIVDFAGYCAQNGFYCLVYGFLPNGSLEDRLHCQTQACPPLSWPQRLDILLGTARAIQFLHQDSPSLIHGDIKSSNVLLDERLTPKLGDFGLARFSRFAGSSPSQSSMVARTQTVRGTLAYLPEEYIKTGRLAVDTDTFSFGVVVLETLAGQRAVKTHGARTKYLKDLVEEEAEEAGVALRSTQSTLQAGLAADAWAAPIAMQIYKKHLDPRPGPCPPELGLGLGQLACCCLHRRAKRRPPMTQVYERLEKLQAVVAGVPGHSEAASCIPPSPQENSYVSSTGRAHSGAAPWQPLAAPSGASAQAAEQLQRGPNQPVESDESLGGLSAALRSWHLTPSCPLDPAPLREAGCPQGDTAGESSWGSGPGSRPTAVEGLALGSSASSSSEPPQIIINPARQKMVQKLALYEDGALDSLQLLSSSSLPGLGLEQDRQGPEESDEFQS
T6 sequence (P51451 whole entry): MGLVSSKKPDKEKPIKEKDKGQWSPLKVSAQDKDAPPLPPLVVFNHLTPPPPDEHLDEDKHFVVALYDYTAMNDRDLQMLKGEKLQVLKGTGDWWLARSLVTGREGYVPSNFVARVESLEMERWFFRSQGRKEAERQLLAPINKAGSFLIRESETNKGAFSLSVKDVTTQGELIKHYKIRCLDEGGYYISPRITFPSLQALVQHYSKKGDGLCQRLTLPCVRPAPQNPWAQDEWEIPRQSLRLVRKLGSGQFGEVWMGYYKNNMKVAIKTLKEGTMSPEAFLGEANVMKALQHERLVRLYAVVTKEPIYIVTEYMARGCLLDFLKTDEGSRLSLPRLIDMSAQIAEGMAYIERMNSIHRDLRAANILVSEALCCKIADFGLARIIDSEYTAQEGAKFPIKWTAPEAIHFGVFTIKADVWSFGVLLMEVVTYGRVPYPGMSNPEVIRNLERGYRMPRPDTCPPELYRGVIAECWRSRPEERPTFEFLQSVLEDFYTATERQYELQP
T4 sequence (P22455 22-802): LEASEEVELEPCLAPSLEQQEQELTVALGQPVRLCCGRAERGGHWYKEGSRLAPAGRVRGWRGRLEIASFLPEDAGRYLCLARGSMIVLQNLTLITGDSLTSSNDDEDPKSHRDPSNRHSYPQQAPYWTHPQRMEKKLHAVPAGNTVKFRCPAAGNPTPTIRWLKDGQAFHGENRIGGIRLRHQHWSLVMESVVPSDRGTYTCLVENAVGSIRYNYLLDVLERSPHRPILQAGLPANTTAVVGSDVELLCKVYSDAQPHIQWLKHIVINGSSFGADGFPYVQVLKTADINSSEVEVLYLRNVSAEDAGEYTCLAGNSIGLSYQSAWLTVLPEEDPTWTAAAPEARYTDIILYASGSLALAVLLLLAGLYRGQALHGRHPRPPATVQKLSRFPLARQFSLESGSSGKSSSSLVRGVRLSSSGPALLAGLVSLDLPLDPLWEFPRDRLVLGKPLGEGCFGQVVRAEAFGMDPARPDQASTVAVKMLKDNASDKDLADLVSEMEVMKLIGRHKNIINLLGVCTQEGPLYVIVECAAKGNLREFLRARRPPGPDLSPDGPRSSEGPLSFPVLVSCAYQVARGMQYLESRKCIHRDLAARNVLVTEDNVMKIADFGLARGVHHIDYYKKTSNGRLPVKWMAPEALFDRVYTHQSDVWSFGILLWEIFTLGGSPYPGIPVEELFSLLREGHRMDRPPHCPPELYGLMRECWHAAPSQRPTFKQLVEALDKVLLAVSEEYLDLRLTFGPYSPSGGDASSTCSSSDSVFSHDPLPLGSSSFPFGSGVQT
T5 sequence (P19784 whole entry): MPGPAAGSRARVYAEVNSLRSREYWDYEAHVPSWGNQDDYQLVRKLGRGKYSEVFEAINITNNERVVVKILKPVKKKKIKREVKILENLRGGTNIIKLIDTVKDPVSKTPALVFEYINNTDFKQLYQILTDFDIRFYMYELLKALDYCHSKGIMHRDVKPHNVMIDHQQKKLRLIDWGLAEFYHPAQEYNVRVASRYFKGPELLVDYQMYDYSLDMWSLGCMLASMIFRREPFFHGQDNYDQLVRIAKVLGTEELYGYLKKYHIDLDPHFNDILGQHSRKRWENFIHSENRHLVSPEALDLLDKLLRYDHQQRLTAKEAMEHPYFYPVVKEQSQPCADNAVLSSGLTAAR
T3 sequence (P54756 25-1037): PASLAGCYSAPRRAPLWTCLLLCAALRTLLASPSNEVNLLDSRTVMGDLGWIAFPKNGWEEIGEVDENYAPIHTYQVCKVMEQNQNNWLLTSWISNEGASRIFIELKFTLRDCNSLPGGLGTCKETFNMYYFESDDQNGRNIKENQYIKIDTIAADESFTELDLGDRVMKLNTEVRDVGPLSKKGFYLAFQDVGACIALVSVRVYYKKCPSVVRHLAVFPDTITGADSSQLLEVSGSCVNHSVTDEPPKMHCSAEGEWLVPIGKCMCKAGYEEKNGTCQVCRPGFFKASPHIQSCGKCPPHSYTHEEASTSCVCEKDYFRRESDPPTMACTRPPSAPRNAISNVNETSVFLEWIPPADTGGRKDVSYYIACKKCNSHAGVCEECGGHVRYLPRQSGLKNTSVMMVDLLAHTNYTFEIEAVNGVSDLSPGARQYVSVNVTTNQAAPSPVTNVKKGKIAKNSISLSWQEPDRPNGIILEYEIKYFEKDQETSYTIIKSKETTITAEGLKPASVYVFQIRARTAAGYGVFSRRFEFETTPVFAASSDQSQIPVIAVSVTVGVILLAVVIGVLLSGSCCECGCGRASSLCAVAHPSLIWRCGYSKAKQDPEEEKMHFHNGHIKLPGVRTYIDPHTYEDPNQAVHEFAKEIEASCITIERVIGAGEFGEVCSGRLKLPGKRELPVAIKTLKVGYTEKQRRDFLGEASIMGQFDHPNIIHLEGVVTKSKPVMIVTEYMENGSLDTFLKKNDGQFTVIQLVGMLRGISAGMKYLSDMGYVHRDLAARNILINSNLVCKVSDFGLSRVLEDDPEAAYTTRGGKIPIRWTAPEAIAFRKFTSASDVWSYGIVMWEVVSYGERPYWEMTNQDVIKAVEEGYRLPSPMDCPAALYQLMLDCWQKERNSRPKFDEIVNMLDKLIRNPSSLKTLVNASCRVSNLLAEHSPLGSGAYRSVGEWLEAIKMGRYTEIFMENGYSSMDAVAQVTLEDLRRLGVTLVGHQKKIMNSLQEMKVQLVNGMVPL

## COc1cc(OC)c(Cl)c(-c2ccc3c(NC(=O)c4ccc(N5CCNC(C)(C)C5)cc4)n[nH]c3n2)c1Cl [3D185]
IRAK1(h); 10 nM
  inhibition at 0.01 µM: 4%
IRAK1(h); 100 nM
  inhibition at 0.1 µM: 0%
IRAK1(h); 1000 nM
  inhibition at 1 µM: 19%
TRB2(h); 10 nM
  inhibition at 0.01 µM: -3%
TRB2(h); 100 nM
  inhibition at 0.1 µM: -7%
TRB2(h); 1000 nM
  inhibition at 1 µM: -4%
EphA5(h); 10 nM
  inhibition at 0.01 µM: 11%
EphA5(h); 100 nM
  inhibition at 0.1 µM: 10%
EphA5(h); 1000 nM
  inhibition at 1 µM: 13%
FGFR4(h); 10 nM
  inhibition at 0.01 µM: 43%
FGFR4(h); 100 nM
  inhibition at 0.1 µM: 91%
FGFR4(h); 1000 nM
  inhibition at 1 µM: 100%
CK2α2(h); 10 nM
  inhibition at 0.01 µM: 0%
CK2α2(h); 100 nM
  inhibition at 0.1 µM: 1%
CK2α2(h); 1000 nM
  inhibition at 1 µM: -6%
Blk(h); 10 nM
  inhibition at 0.01 µM: -18%
Blk(h); 100 nM
  inhibition at 0.1 µM: 16%
Blk(h); 1000 nM
  inhibition at 1 µM: 88%
PKG1β(h); 10 nM
  inhibition at 0.01 µM: 12%
PKG1β(h); 100 nM
  inhibition at 0.1 µM: 1%
PKG1β(h); 1000 nM
  inhibition at 1 µM: 4%
EphA3(h); 10 nM
  inhibition at 0.01 µM: 2%
EphA3(h); 100 nM
  inhibition at 0.1 µM: 14%
EphA3(h); 1000 nM
  inhibition at 1 µM: 30%
CDK4/cyclinD3(h); 10 nM
  inhibition at 0.01 µM: 5%
CDK4/cyclinD3(h); 100 nM
  inhibition at 0.1 µM: -4%
CDK4/cyclinD3(h); 1000 nM
  inhibition at 1 µM: 11%

Source: PMC6704710, “Preclinical evaluation of 3D185, a novel potent inhibitor of FGFR1/2/3 and CSF-1R, in FGFR-dependent and macrophage-dominant cancer models” (Journal of Experimental & Clinical Cancer Research : CR, 2019)
